Measured values taken from BindingDB's records for doi:10.1021/jm00157a007 (1987).

biological target: Chymotrypsinogen A (Bos taurus) (UniProt P00766); assay: In vitro binding affinity towards alpha-chymotrypsin from bovine pancreas.

SMILES	Ki
CCCCc1ccc(=O)oc1Cl [5-Butyl-6-chloro-pyran-2-one]	3.9 µM
O=c1ccc(-c2ccccc2)co1 [5-Phenyl-pyran-2-one]	75 µM
O=c1oc(Cl)ccc1-c1ccccc1 [6-Chloro-3-phenyl-pyran-2-one]	0.27 µM
CCc1ccc(=O)oc1Cl [6-Chloro-5-ethyl-pyran-2-one]	5.6 µM
O=c1ccc(-c2ccccc2)c(Cl)o1 [6-Chloro-5-phenyl-pyran-2-one]	1.3 µM
